The results in this text go back to patent publication US11161876B2, “Anti-inflammatory nanofibers” (Northwestern University, priority 2015, dated 2021).

* marks the point of attachment. C16 alkyl = CCCCCCCCCCCCCCCC*

The test system of one experiment is IL-10. The experiment is described as follows: IL-10 expression in regenerated bladder tissue (immunofluorescence). The class given is in vivo, rat. The note with it: for Cytokine expression (shown as percentage of cells staining positive) Anti-inflammatory IL-10: 5 weeks post-augmentation, means ± SE; for percentage of cells staining positive for IL-10: 10 days post-augmentation. Here is the method: (§1) Athymic female rats (weighing ˜200 g and 8-10 weeks old; National Cancer Institute Animal Production Program) underwent bladder augmentation (ref. 15; herein incorporated by reference in its entirety). Athymic rats were chosen for this study to solely examine the innate immune response to inflammation without influence of the adaptive immune response. In order to induce anesthesia, animals were given intraperitoneal injections of 60 mg/kg ketamine and 5 mg/kg xylazine. A second injection consisting of Buprenex (1 mg/kg) was administered subcutaneously to alleviate any pain/discomfort during and following surgical procedures. An approximate 1.5 cm midline vertical skin incision was created to expose the abdominal fascia and muscles. This was immediately followed by the separation of the wall leading to the identification of the bladder. An approximate 70% supratrigonal cystectomy was performed from anterior to posterior creating a clamshell. Immediately prior to bladder augmentation procedures, samples of the pro-inflammatory biological scaffold, small intestinal submucosa (SIS (0.5×0.5 cm); Cook Biotech.) (refs. 12,13,16; herein incorporated by reference in their entireties) were thoroughly dip-coated separately in one of the previously described AIF-PAs following gelation procedures. The sections of SIS were dip-coated for approximately 20 seconds and allowed to adhere to the SIS for an additional 30 seconds. Dip-coating procedures were performed at room temperature in air. The cystectomized bladder defect was then augmented with: 1) SIS (non-AIF-PA coated SIS; n=8 animals over both time-points); 2) AIF-PA1 coated SIS (denoted as SIS/AIF-PA1; n=11 animals over both time-points); 3) AIF-PA2 coated SIS (denoted as SIS/AIF-PA2; n=8 animals over both time-points); 4) AIF-PA3 coated SIS (denoted as SIS/AIF-PA3; n=3); 5) AIF-PA4 coated SIS (denoted as SIS/AIF-PA4; n=3 animals); 6) AIF-PA5 coated SIS (denoted as SIS/AIF-PA5; n=3 animals); and 7) AIFC-PA6 coated SIS (denoted as SIS/AIFC-PA6; n=9 animals over both time-points). The bladder was finally covered with omentum after being closed in a watertight manner utilizing 7-0 polyglactin suture. The abdominal wall was then closed in a single layer with 5-0 ethibond running suture and the skin re-approximated with 9 mm autoclips. Each group was sacrificed at 10 day and 5 week time-points.
(§2) Tissue sections comprised of SIS alone, SIS/AIF-PA1, SIS/AIF-PA2, and SIS/AIF-PA6 augmentations were subjected to immunofluorescence staining by initially undergoing antigen retrieval which consisted of 15 min of boiling in citrate buffer (0.01M citrate solution, pH 6.0 with 0.05% Tween-20) followed by cooling at room temperature for approximately 20 minutes. The antibody staining process consisted of a blocking step for 15 min in bovine serum albumin (BSA, 5 mg/ml) followed by a 40 minutes incubation at room temperature with the primary antibody. After washing with DPBS, slides were incubated for 30 min with a secondary antibody and eventually rinsed with DPBS and air dried. Slides were mounted with Vectashield (Vector Laboratories). Primary antibodies were directed against epitopes for the inflammatory markers CD68 (macrophage) (refs. 18,19; herein incorporated by reference in their entireties) MPO (neutrophil) (ref. 20; herein incorporated by reference in its entirety) or the inflammation-related proteins IL1β, TNFα, IL-10, IL-13, CD206 (M2 macrophage) (refs. 21-25; herein incorporated by reference in their entireties) and CD86 (M1 macrophage) (ref. 26; herein incorporated by reference in its entirety). Antibodies directed against the ECM in regenerating bladder tissue (including COL4A3 and fibronectin) were also utilized. Alexa Red 555 or FITC conjugated secondary antibodies (Molecular Probes) were utilized for visualization (ref. 15; herein incorporated by reference in its entirety). […]

Experiment [1] relates to Rat Bladder Augmentation Model. The experiment is described as follows: Bladder tissue collagen quantification (Masson's Trichrome). In kind it is in vivo. The note with it: for mean level of collagen in regenerated bladder tissue: means±SE; for collagen levels, in words: 10 days post-augmentation, compared between groups. Here is the method:
as §1
Explanted bladder specimens encompassing the entire thickness of the bladder were isolated immediately following euthanasia and processed (ref. 15; herein incorporated by reference in its entirety). Specimens were fixed in a 10% buffered formalin phosphate (Fisher Scientific, Inc.) solution followed by a series of graded ethanol exchanges then embedded in paraffin (Fisher Scientific). Embedded tissues were sectioned onto glass slides at a thickness of 10 μm using a RM2125 RT Microtome (Leica) onto glass slides and subjected to staining with Masson's Trichrome (Sigma-Aldrich Corp.) reagent. The paraffin was removed from tissue containing slides using a hot plate at 62° C. for 6 minutes and was followed by treatment with xylenes, graded ethanol washes and DI water. Slides were placed in Bouin's solution (Sigma-Aldrich Corp.) for approximately 15 min then rinsed under running tap water. The samples were then stained 5 minutes with Hematoxylin and rinsed with running water and subsequently stained with Scarlet-Acid Fuchsin (Sigma-Aldrich Corp.). Slides were rinsed again with DI water and placed into a mixture of PTA/PMA, followed by Aniline Blue solution and a 1% acetic acid wash. Finally, slides were placed in 95-100% ethanol and rinsed in xylene. Following air drying, a coverslip was placed over the specimen sample and secured with Permaslip (Alban Scientific Inc).
Bladder tissue specimens were evaluated for collagen content (refs. 13,15,17; herein incorporated by reference in their entireties). […]

The next experiment has as its system IL-1β. The experiment is described as follows: IL-1β expression in regenerated bladder tissue (immunofluorescence). In kind it is in vivo, rat. The note with it: for Cytokine expression (shown as percentage of cells staining positive) Pro-inflammatory IL-1β: 5 weeks post-augmentation, means ± SE; for percentage of cells staining positive for IL-1β: 10 days post-augmentation. Here is the method:
as §1, §2

Experiment [2] has as its system Rat Bladder Augmentation Model. The experiment is described as follows: Granuloma quantification (CD68 immunofluorescence) in augmented bladder tissue. The class given is in vivo.
Description: Granulation tissue is composed of several extracellular matrices such as collagen and a variety of immune cell types including lymphocytes, neutrophils, and especially macrophages (refs. 54-56; herein incorporated by reference in their entireties). Extravesical granulomas were found in regenerating bladder muscle and submucosa but not in the epithelial layer (urothelium) that lines the interior of the bladder wall. […] Granulation tissue was identified by a trained Pathologist (M.D.H.) utilizing immunofluorescence imaging with the macrophage marker CD68 (green). […] Images are representative examples of multiple stained tissue samples. See Table 1 for granuloma quantification. Magnification 100× (Scale bar, 200 μm).
as §1
Tissue sections comprised of SIS alone, SIS/AIF-PA1, SIS/AIF-PA2, and SIS/AIF-PA6 augmentations were subjected to immunofluorescence staining by initially undergoing antigen retrieval which consisted of 15 min of boiling in citrate buffer (0.01M citrate solution, pH 6.0 with 0.05% Tween-20) followed by cooling at room temperature for approximately 20 minutes. The antibody staining process consisted of a blocking step for 15 min in bovine serum albumin (BSA, 5 mg/ml) followed by a 40 minutes incubation at room temperature with the primary antibody. After washing with DPBS, slides were incubated for 30 min with a secondary antibody and eventually rinsed with DPBS and air dried. Slides were mounted with Vectashield (Vector Laboratories). […]

On to “C16-VVVAAAEEEHDMNKVLDL (SEQ ID NO:2) ({C16 alkyl}-VVVAAAEEEHDMNKVLDL-NH2) [SIS/AIF-PA2, anti-inflammatory peptide amphiphile, tested dip-coated on small intestinal submucosa (SIS) scaffold]”, for which, in the experiment with IL-10, the “Cytokine expression (shown as percentage of cells staining positive) Anti-inflammatory IL-10” value was found to be 33.2 ± 2.3 percentage and the “percentage of cells staining positive for IL-10” value (“percentage … for IL-10” below) is on record as 56.2±3.4%. Besides, the “mean level of collagen in regenerated bladder tissue” value (“mean level of collagen” below) in experiment [1] (5W post-augmentation) was determined as 58.0±0.6%. Moreover, the “mean level of collagen” value in experiment [1] (10D post-augmentation) was found to be 58.6±0.4%. The “collagen levels, in words” value in experiment [1] is recorded as “lesser degrees of collagen”. In the experiment with IL-1β, the “Cytokine expression (shown as percentage of cells staining positive) Pro-inflammatory IL-1β” value was found to be 11.5 ± 2.7 percentage and the “percentage of cells staining positive for IL-1β” value (“percentage … for IL-1β” for short) was determined as 21.2±2.4%. In addition, in experiment [2] (5W post-augmentation), the “Maximum Granuloma Size” value is 4.08 ± 0.38 10^-3 mm^2, the “Mean Granuloma Size” value is 3.00 ± 0.20 10^-3 mm^2, the “Minimum Granuloma Size” value is listed as 2.09 ± 0.39 10^-3 mm^2 and the “Number of Granulomas” value came to 3.00 ± 1.00. Besides, the “Number of Large Granulomas (>0.01 mm^2)” value in experiment [2] (5W post-augmentation) was determined as 0. Also, the “granuloma formation, in words” value in experiment [2] (5W samples) was “diminished”. Also, in experiment [2] (10D post-augmentation), the “Maximum Granuloma Size” value is given as 11.99 ± 3.62 10^-3 mm^2, the “Mean Granuloma Size” value is 5.95 ± 1.16 10^-3 mm^2, the “Minimum Granuloma Size” value is 2.65 ± 0.17 10^-3 mm^2 and the “Number of Granulomas” value is on record as 4.00 ± 1.00. In addition, the “Number of Large Granulomas (>0.01 mm^2)” value in experiment [2] (10D post-augmentation) is given as 0.67 ± 0.33. Also, in experiment [2] (10 day samples), the “granuloma formation, in words” value was “lesser degree of granuloma formation in size and frequency”.

With “C16-VVVAAAEEEKLMSQKMVD (SEQ ID NO:6) ({C16 alkyl}-VVVAAAEEEKLMSQKMVD-NH2) [SIS/AIFC-PA6, reference compound]”, in the experiment on IL-10, the “Cytokine expression (shown as percentage of cells staining positive) Anti-inflammatory IL-10” value came out at 21.1 ± 2.1 percentage and the “percentage … for IL-10” value was found to be 27.8±3.0%. The “mean level of collagen” value in experiment [1] (5W post-augmentation) is on record as 68.8±2.7%. For the same substance, the “mean level of collagen” value in experiment [1] (10D post-augmentation) stood at 71.5±1.4%. Moreover, in the experiment on IL-1β, the “Cytokine expression (shown as percentage of cells staining positive) Pro-inflammatory IL-1β” value stood at 42.9 ± 1.8 percentage and the “percentage … for IL-1β” value worked out at 63.3±2.4%. Also, in experiment [2] (5W post-augmentation), the “Maximum Granuloma Size” value is 14.80 ± 2.30 10^-3 mm^2, the “Mean Granuloma Size” value is 6.10 ± 0.51 10^-3 mm^2, the “Minimum Granuloma Size” value was 2.21 ± 0.30 10^-3 mm^2 and the “Number of Granulomas” value came to 7.00 ± 1.08. Also, the “Number of Large Granulomas (>0.01 mm^2)” value in experiment [2] (5W post-augmentation) was determined as 1.00 ± 0.41. For the same substance, the “granuloma formation, in words” value in experiment [2] (5W samples) is listed as “accumulation of granulomas”. In addition, in experiment [2] (10D post-augmentation), the “Maximum Granuloma Size” value is on record as 110.89 ± 1.51 10^-3 mm^2, the “Mean Granuloma Size” value is 29.64 ± 0.74 10^-3 mm^2, the “Minimum Granuloma Size” value is given as 6.12 ± 0.01 10^-3 mm^2 and the “Number of Granulomas” value was 10.00 ± 1.00. In addition, in experiment [2] (10D post-augmentation), the “Number of Large Granulomas (>0.01 mm^2)” value was determined as 6.00 ± 1.00. Further, the “granuloma formation, in words” value in experiment [2] (10 day samples) is “large granuloma formation”.

For “C16-VVVAAAEEEMQMKKVLDS (SEQ ID NO:1) ({C16 alkyl}-VVVAAAEEEMQMKKVLDS-NH2) [SIS/AIF-PA1, anti-inflammatory peptide amphiphile, tested dip-coated on small intestinal submucosa (SIS) scaffold]”, in the experiment with IL-10, the “Cytokine expression (shown as percentage of cells staining positive) Anti-inflammatory IL-10” value amounted to 30.0 ± 1.6 percentage and the “percentage … for IL-10” value is listed as 52.0±3.1%. Moreover, the “mean level of collagen” value in experiment [1] (5W post-augmentation) turned out to be 55.0±1.2%. The “mean level of collagen” value in experiment [1] (10D post-augmentation) was found to be 59.1±1.1%. For the same substance, the “collagen levels, in words” value in experiment [1] is listed as “lesser degrees of collagen”. For the same substance, in the experiment on IL-1β, the “Cytokine expression (shown as percentage of cells staining positive) Pro-inflammatory IL-1β” value stood at 12.9 ± 2.0 percentage and the “percentage … for IL-1β” value is 28.2±2.4%. In experiment [2] (5W post-augmentation), the “Maximum Granuloma Size” value is 1.62 ± 1.15 10^-3 mm^2, the “Mean Granuloma Size” value is given as 1.26 ± 0.68 10^-3 mm^2, the “Minimum Granuloma Size” value was 0.97 ± 0.65 10^-3 mm^2 and the “Number of Granulomas” value stood at 1.75 ± 1.03. Further, in experiment [2] (5W post-augmentation), the “Number of Large Granulomas (>0.01 mm^2)” value is on record as 0. Moreover, in experiment [2] (5W samples), the “granuloma formation, in words” value is listed as “diminished”. Further, in experiment [2] (10D post-augmentation), the “Maximum Granuloma Size” value is reported as 23.39 ± 7.66 10^-3 mm^2, the “Mean Granuloma Size” value is on record as 8.77 ± 1.32 10^-3 mm^2, the “Minimum Granuloma Size” value is on record as 2.67 ± 0.15 10^-3 mm^2 and the “Number of Granulomas” value is on record as 4.00 ± 1.00. In experiment [2] (10D post-augmentation), the “Number of Large Granulomas (>0.01 mm^2)” value was found to be 1.33 ± 0.33. Further, the “granuloma formation, in words” value in experiment [2] (10 day samples) is “lesser degree of granuloma formation in size and frequency”.
